Molecules are shown by their SMILES. Like-named read-outs stand apart in the source and are kept apart here.

Experiment [1] concerns the target T1, rI-FABP (SEQ ID NO: 3) variant L2P14F7-MGCFD, MGCFD - 18G 31M 72A (Rattus norvegicus, UniProt P02693, A2G/G32M/INS2C/L73A/M19G).
T1 construct: made in house
Put plainly: bilirubin binding to L2P14F7-MGCFD probe. To be noted: Table 5, Texas Red C2-Maleimide. The procedure:
(§1) Also described are analytical/mathematical methods for calibrating and using the bilirubin probes. Bilirubin probes are calibrated to determine their binding affinity for bilirubin (dissociation constant Kd) under conditions, such as temperature, pH and solution composition, that correspond to samples in which it is desired to know the unbound bilirubin concentration. Binding isotherms are performed in aqueous buffer by measuring the change in fluorescence of the bilirubin probes in response to increasing bilirubin concentrations (“titration data”). The set of fluorescence responses at each bilirubin concentration are fitted with an appropriate equation (“calibration equation”) that correctly describes the fluorescence response as a function of the bilirubin concentration, the probe concentration, specific spectroscopic characteristics, and the Kd.

Experiment [2] deals with T2, rI-FABP (SEQ ID NO: 3) variant L2P14F7 MGI KR14 K27C, MGI - KR14 - 18G 27C 31M 72A (Rattus norvegicus, UniProt P02693, A2G/G32M/INS2I/K101R/K126R/K130R/K131R/K17R/K21R/K28C/K30R/K38R/K47R/K51R/K89R/K8R/K93R/K95R/L73A/M19G).
T2 construct: made in house
T2 sequence (P02693 with tags, fused parts or gaps with the stated changes): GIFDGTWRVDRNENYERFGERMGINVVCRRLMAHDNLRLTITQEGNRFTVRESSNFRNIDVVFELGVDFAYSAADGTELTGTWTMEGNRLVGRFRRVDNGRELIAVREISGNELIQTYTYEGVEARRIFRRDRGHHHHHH
Put plainly: bilirubin binding to L2P14F7 MGI KR14 K27C probe. Conditions: Table 5, acrylodan. Here is the method:
as §1

Experiment [3] deals with T3, rI-FABP (SEQ ID NO: 3) variant L2P14F7 MGI KR14 K27K, MGI - KR14 - 18G 27K 31M 72A (Rattus norvegicus, UniProt P02693, G32M/K101R/K126R/K17R/K21R/K30R/K38R/K47R/K51R/K89R/K8R/K93R/K95R/L73A/M19G).
T3 construct: made in house
T3 sequence (P02693 with tags, fused parts or gaps with the stated changes): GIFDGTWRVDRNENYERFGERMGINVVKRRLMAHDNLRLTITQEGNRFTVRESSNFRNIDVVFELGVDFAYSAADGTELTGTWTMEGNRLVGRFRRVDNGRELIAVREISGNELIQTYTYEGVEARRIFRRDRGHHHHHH
Nature of the experiment: bilirubin binding to L2P14F7 MGI KR14 K27K probe. Conditions: Table 6, acrylodan. Here is the method: as §1

Experiment [4] addresses T4, rI-FABP (SEQ ID NO: 3) variant L10P9 E6, 14T 18L 73M 117C 72A (Rattus norvegicus, UniProt P02693, A74M/L73A/M19L/Y118C/Y15T).
T4 construct: made in house
Nature of the experiment: bilirubin binding to L10P9E6 probe. To be noted: Table 5, acrylodan. The procedure:
as §1

Experiment [5] has as its target T5, rI-FABP (SEQ ID NO: 3) variant BL22P1 B11 - 24C, MGI - KR14 - 14R 18L 24C 27A 38V 60R 73F 106L 115R 117D (Rattus norvegicus, UniProt P02693, A74F/K101R/K126R/K17R/K21R/K28A/K30R/K38R/K47R/K51R/K89R/K8R/K93R/K95R/L39V/L73A/M19L/N25C/Q116R/R107L/V61R/Y118D/Y15R).
T5 construct: 6xHis (C); made in house
The format is binding. To be noted: Table 5, Alexa Fluor 680 C2-maleimide. Here is the method: as §1

The target in experiment [6] is T6, rI-FABP (SEQ ID NO: 3) variant BL22P1 B11 - 26C, MGI - KR14 - Y14R M18L V26C K27A L38V V60R A73F R106L Q115R Y117D (Rattus norvegicus, UniProt P02693, A74F/K101R/K126R/K17R/K21R/K28A/K30R/K38R/K47R/K51R/K89R/K8R/K93R/K95R/L39V/L73A/M19L/Q116R/R107L/V27C/V61R/Y118D/Y15R).
T6 construct: 6xHis (C); made in house
T6 sequence (P02693 with tags, fused parts or gaps with the stated changes): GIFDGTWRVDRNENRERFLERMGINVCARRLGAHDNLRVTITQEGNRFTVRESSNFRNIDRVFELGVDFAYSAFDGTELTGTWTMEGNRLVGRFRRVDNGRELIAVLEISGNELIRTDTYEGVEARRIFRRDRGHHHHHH
The format is binding. Conditions: Table 5, Alexa Fluor 680 C2-maleimide. Here is the method:
as §1

For experiment [7], the target named is T7, rI-FABP (SEQ ID NO: 3) variant BL22P1 B11 - 27C, MGI - KR14 - Y14R M18L K27C L38V V60R A73F R106L Q115R Y117D (Rattus norvegicus, UniProt P02693, A74F/K101R/K126R/K17R/K21R/K28C/K30R/K38R/K47R/K51R/K89R/K8R/K93R/K95R/L39V/L73A/M19L/Q116R/R107L/V61R/Y118D/Y15R).
T7 construct: 6xHis (C); made in house
T7 sequence (P02693 with tags, fused parts or gaps with the stated changes): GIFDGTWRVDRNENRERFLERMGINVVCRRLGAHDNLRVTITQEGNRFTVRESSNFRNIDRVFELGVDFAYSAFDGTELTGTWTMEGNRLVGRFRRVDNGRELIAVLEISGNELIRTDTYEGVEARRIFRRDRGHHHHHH
It is filed as binding. The procedure:
as §1

Experiment [8] deals with T8, rI-FABP (SEQ ID NO: 3) variant BL22P1 B11 - 29C, MGI - KR14 - 14R 18L 27A 29C 38V 60R 73F 106L 115R 117D (Rattus norvegicus, UniProt P02693, A74F/K101R/K126R/K17R/K21R/K28A/K30C/K38R/K47R/K51R/K89R/K8R/K93R/K95R/L39V/L73A/M19L/Q116R/R107L/V61R/Y118D/Y15R).
T8 construct: 6xHis (C); made in house
T8 sequence (P02693 with tags, fused parts or gaps with the stated changes): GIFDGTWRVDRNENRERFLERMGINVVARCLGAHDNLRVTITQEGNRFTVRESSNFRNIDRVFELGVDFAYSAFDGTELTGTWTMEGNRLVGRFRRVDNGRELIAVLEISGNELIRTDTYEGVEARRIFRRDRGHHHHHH
It is filed as binding. To be noted: Table 5, Alexa Fluor 680 C2-maleimide. The procedure: as §1

The target in experiment [9] is T9, rI-FABP (SEQ ID NO: 3) variant BL22P1 B11 - 33C, MGI - KR14 - 14R 18L 27A 33C 38V 60R 73F 106L 115R 117D (Rattus norvegicus, UniProt P02693, A74F/H34C/K101R/K126R/K17R/K21R/K28A/K30R/K38R/K47R/K51R/K89R/K8R/K93R/K95R/L39V/L73A/M19L/Q116R/R107L/V61R/Y118D/Y15R).
T9 construct: 6xHis (C); made in house
T9 sequence (P02693 with tags, fused parts or gaps with the stated changes): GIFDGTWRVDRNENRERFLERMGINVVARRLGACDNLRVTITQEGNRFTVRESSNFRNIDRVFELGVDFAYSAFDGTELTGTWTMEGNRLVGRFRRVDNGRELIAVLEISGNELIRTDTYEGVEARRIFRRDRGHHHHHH
It is filed as binding. The procedure: as §1

Experiment [10] deals with T10, rI-FABP (SEQ ID NO: 3) variant BL22P1 B11 - 54C, MGI - KR14 - 14R 18L 27A 38V 54C 60R 73F 106L 115R 117D (Rattus norvegicus, UniProt P02693, A74F/K101R/K126R/K17R/K21R/K28A/K30R/K38R/K47R/K51R/K89R/K8R/K93R/K95R/L39V/L73A/M19L/N55C/Q116R/R107L/V61R/Y118D/Y15R).
T10 construct: 6xHis (C); made in house
T10 sequence (P02693 with tags, fused parts or gaps with the stated changes): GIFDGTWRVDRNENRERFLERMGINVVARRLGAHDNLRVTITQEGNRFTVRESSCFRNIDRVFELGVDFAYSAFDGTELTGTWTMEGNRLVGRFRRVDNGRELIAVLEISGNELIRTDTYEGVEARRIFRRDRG
It is filed as binding. To be noted: Table 5, Alexa Fluor 680 C2-maleimide. Here is the method:
as §1

The target of experiment [11] is T11, rI-FABP (SEQ ID NO: 3) variant BL22P1 B11 - 74C, MGI - KR14 - 14R 18L 27A 38V 60R 73F 74C 106L 115R 117D (Rattus norvegicus, UniProt P02693, A74F/D75C/K101R/K126R/K17R/K21R/K28A/K30R/K38R/K47R/K51R/K89R/K8R/K93R/K95R/L39V/L73A/M19L/Q116R/R107L/V61R/Y118D/Y15R).
T11 construct: 6xHis (C); made in house
T11 sequence (P02693 with tags, fused parts or gaps with the stated changes): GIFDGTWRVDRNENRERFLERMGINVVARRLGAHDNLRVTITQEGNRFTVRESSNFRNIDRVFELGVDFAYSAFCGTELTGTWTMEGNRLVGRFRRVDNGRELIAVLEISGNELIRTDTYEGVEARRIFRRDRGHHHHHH
The format is binding. To be noted: Table 5, Alexa Fluor 680 C2-maleimide. Here is the method:
as §1

[12] abbreviates: Table 5, Alexa Fluor 680 C2-maleimide.
Setting [13] is: Table 5, Alexa Fluor 750 C5-maleimide.

T4 sequence (P02693 with tags, fused parts or gaps Y15T/M19L/L73A/A74M/Y118C): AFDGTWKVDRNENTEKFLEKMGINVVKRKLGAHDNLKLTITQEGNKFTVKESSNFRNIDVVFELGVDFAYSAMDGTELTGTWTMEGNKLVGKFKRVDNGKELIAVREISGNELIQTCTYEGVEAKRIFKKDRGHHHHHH
T5 sequence (P02693 with tags, fused parts or gaps with the stated changes): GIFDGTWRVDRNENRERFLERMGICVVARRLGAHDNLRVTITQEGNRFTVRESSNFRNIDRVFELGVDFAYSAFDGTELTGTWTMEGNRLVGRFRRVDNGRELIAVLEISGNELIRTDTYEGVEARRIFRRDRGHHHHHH
T1 sequence (P02693 with tags, fused parts or gaps M19G/G32M/L73A): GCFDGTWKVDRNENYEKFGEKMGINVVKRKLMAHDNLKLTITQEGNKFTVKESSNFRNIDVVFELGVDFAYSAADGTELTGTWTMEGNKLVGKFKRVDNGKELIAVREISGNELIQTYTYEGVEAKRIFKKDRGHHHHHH

For the molecule `C=CC1=C(C)/C(=C/c2[nH]c(Cc3[nH]c(/C=C4\NC(=O)C(C)=C4C=C)c(C)c3CCC(=O)O)c(CCC(=O)O)c2C)NC1=O` [bilirubin], the dissociation constant Kd in experiment [1] was determined as 400 nM; in experiment [2], 350 nM; in [3] it was 84 nM; in experiment [4], 1430 nM; in experiment [5], 72 nM; in experiment [6], 197 nM. In addition, the Kd was 70 nM in experiment [7] (setting [12]); 154 nM in experiment [7] (setting [13]); 118 nM in experiment [8]; 250 nM in [9] (setting [12]); 120 nM in experiment [9] (setting [13]); 160 nM in experiment [10]. In addition, binding in experiment [11] was put at a Kd of 160 nM.

As usually defined, the Kd is a measure of binding affinity in units of concentration. High values mean a looser complex, low ones a tighter complex.
